Assay results published in patent EP4786487A1, “PEPTIDE” (Peptidream Inc, priority 2023, dated 2025).
Starred links: 1 amine or outer side, 2 acyl side, 3 side chain; linkers in the order of their positions; H or OH if unused. Positions of bridges follow the written chain, without caps; N, C: chain ends. Non-standard residues stand in square brackets, D forms with d. Residues, ends and D or L forms follow the SMILES beside them. Phe(3-OCH2COOH) = N[C@@H](Cc1cccc(OCC(=O)O)c1)C(=O)O; Phe(4-COOH) = N[C@@H](Cc1ccc(C(=O)O)cc1)C(=O)O; Gly(decyl) = CCCCCCCCCC[C@H](N)C(=O)O; Gly(N(CH2)3COOH) = O=C(O)CCCNCC(=O)O; Gly(octyl) = CCCCCCCC[C@H](N)C(=O)O; X1 = CCCCCCC[C@H](N[*:1])C(=O)[*:2]; NMeF = CN[C@@H](Cc1ccccc1)C(=O)O; Aoc(2) = CCCCCC[C@H](N)C(=O)O; Ahp(2) = CCCCC[C@H](N)C(=O)O; NMeA = CN[C@@H](C)C(=O)O; Sar = CNCC(=O)O

How the values were obtained:
Type in all cases: cell-based
[1] = target: T1, Myostatin (Homo sapiens, UniProt O14793); experiment: Reporter gene assay for myostatin signaling in HepG2 cell line, Evaluation Procedure (1), myostatin inhibition; settings: Method A: Myostatin 10 ng/mL; read-out: IC50 (Luciferase) Myostatin HepG2
T1 construct: active myostatin (also called mature myostatin) is a homodimer consisting of two C-terminal growth factor domains; purchased R&D systems 788-G8/CF
T1 sequence (O14793 267-375): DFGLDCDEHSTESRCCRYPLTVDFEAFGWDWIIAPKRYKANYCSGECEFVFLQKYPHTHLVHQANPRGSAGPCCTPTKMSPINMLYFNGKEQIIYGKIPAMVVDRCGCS
How it was run: (§1)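 IC50 derived from One-Glo luciferase luminescence after 20–24 h at 37 °C. Peptides titrated 4-fold at 0.006–100 nmol/L against myostatin or 0.12–2000 nmol/L against GDF-11 in HepG2 cells carrying a transfected CAGA12-luciferase reporter, kept in 0.1% BSA EMEM.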

[2] = tested on: Myostatin; experiment: as above; settings: Method A; GDF-11 IC50 versus Myostatin IC50
How it was run: as §1

[3] = target: T2, GDF-11 (Homo sapiens, UniProt O95390); experiment: Reporter gene assay for myostatin signaling in HepG2 cell line, Evaluation Procedure (1), GDF-11 inhibition; settings: Method A: GDF-11 10 ng/mL; read-out: IC50 (Luciferase) GDF-11 HepG2
T2 construct: purchased R&D systems 1958-GD-G8/CF
T2 sequence (O95390 299-407): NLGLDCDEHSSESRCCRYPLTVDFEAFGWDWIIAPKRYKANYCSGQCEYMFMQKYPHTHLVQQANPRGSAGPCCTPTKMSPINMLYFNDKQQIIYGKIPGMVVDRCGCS
How it was run: as §1

SMILES	IC50 [1] [nM]	Selectivity [2]	IC50 [3] [nM]
CCCCCCC[C@@H]1NC(=O)[C@H](Cc2ccccc2)N(C)C(=O)[C@H](CCCNC(=N)N)NC(=O)[C@H](Cc2ccc(C(=O)O)cc2)NC(=O)[C@H](Cc2cccc(OCC(=O)O)c2)NC(=O)[C@H](C)N(C)C(=O)[C@H]([C@@H](C)CC)NC(=O)[C@H](Cc2ccccc2)N(C)C(=O)[C@H](Cc2ccc(O)cc2)NC(=O)[C@H](Cc2c[nH]c3ccccc23)NC(=O)[C@H](C)NC(=O)[C@H](C)NC(=O)CSC[C@H](C(=O)O)NC(=O)[C@H](Cc2ccccc2)N(C)C(=O)[C@H](C)N(C)C1=O [Myostatin_99_v194] ({CH2CO}-AAWY[NMeF]I[NMeA][Phe(3-OCH2COOH)][Phe(4-COOH)]R[NMeF][X1][NMeA][NMeF][dC]-OH; thioether N-15)	1.2	116	139
CCCCCCC[C@@H]1NC(=O)[C@H](Cc2ccccc2)N(C)C(=O)[C@H](CCCNC(=N)N)NC(=O)[C@H](Cc2ccc(C(=O)O)cc2)NC(=O)[C@H](Cc2cccc(OCC(=O)O)c2)NC(=O)[C@H](C)N(C)C(=O)[C@H]([C@@H](C)CC)NC(=O)[C@H](Cc2ccccc2)N(C)C(=O)[C@H](Cc2ccc(O)cc2)NC(=O)[C@H](Cc2c[nH]c3ccccc23)NC(=O)[C@H](C)NC(=O)[C@H](C)N(C)C(=O)CSC[C@H](C(=O)O)NC(=O)[C@H](Cc2ccccc2)N(C)C(=O)[C@H](C)N(C)C1=O [Myostatin_99_v195] ({CH2CO}-[NMeA]AWY[NMeF]I[NMeA][Phe(3-OCH2COOH)][Phe(4-COOH)]R[NMeF][X1][NMeA][NMeF][dC]-OH; thioether N-15)	1.3	196	255
CCCCCCC[C@@H]1NC(=O)[C@H](Cc2ccccc2)N(C)C(=O)[C@H](CCCNC(=N)N)NC(=O)[C@H](Cc2ccc(C(=O)O)cc2)NC(=O)[C@H](Cc2cccc(OCC(=O)O)c2)NC(=O)[C@H](C)N(C)C(=O)[C@H]([C@@H](C)CC)NC(=O)[C@H](Cc2ccccc2)N(C)C(=O)[C@H](Cc2ccc(O)cc2)NC(=O)[C@H](Cc2c[nH]c3ccccc23)NC(=O)[C@H](C)NC(=O)CN(CCCC(=O)O)C(=O)CSC[C@H](C(N)=O)NC(=O)[C@H](Cc2ccccc2)N(C)C(=O)[C@H](C)N(C)C1=O [Myostatin_99_v196] ({CH2CO}-[Gly(N(CH2)3COOH)]AWY[NMeF]I[NMeA][Phe(3-OCH2COOH)][Phe(4-COOH)]R[NMeF][X1][NMeA][NMeF][dC]-NH2; thioether N-15)	3.4	177	603
CCCCCCC[C@@H]1NC(=O)[C@H](Cc2ccccc2)N(C)C(=O)[C@H](CCCNC(=N)N)NC(=O)[C@H](Cc2ccc(C(=O)O)cc2)NC(=O)[C@H](Cc2cccc(OCC(=O)O)c2)NC(=O)[C@H](C)N(C)C(=O)[C@H]([C@@H](C)CC)NC(=O)[C@H](Cc2ccccc2)N(C)C(=O)[C@H](Cc2ccc(O)cc2)NC(=O)[C@H](Cc2c[nH]c3ccccc23)NC(=O)[C@H](CO)NC(=O)[C@H](C)NC(=O)CSC[C@H](C(=O)O)NC(=O)[C@H](Cc2ccccc2)N(C)C(=O)[C@H](C)N(C)C1=O [Myostatin_99_v197] ({CH2CO}-ASWY[NMeF]I[NMeA][Phe(3-OCH2COOH)][Phe(4-COOH)]R[NMeF][X1][NMeA][NMeF][dC]-OH; thioether N-15)	3.4	129	438
CCCCCCCCCC[C@@H]1NC(=O)[C@H](Cc2ccccc2)N(C)C(=O)[C@H](CCCNC(=N)N)NC(=O)[C@H](Cc2ccc(C(=O)O)cc2)NC(=O)[C@H](Cc2cccc(OCC(=O)O)c2)NC(=O)[C@H](C)N(C)C(=O)[C@H]([C@@H](C)CC)NC(=O)[C@H](Cc2ccccc2)N(C)C(=O)[C@H](Cc2ccc(O)cc2)NC(=O)[C@H](Cc2c[nH]c3ccccc23)NC(=O)[C@H](C)NC(=O)CN(CCCC(=O)O)C(=O)CSC[C@H](C(=O)O)NC(=O)[C@H](Cc2ccccc2)N(C)C(=O)[C@H](C)N(C)C1=O [Myostatin_99_v198] ({CH2CO}-[Gly(N(CH2)3COOH)]AWY[NMeF]I[NMeA][Phe(3-OCH2COOH)][Phe(4-COOH)]R[NMeF][Gly(decyl)][NMeA][NMeF][dC]-OH; thioether N-15)	0.7	123	90
CCCCCCCC[C@@H]1NC(=O)[C@H](Cc2ccccc2)N(C)C(=O)[C@H](CCCNC(=N)N)NC(=O)[C@H](Cc2ccc(C(=O)O)cc2)NC(=O)[C@H](Cc2cccc(OCC(=O)O)c2)NC(=O)[C@H](C)N(C)C(=O)[C@H]([C@@H](C)CC)NC(=O)[C@H](Cc2ccccc2)N(C)C(=O)[C@H](Cc2ccc(O)cc2)NC(=O)[C@H](Cc2c[nH]c3ccccc23)NC(=O)[C@H](C)NC(=O)CN(CCCC(=O)O)C(=O)CSC[C@H](C(=O)O)NC(=O)[C@H](Cc2ccccc2)N(C)C(=O)[C@H](C)N(C)C1=O [Myostatin_99_v199] ({CH2CO}-[Gly(N(CH2)3COOH)]AWY[NMeF]I[NMeA][Phe(3-OCH2COOH)][Phe(4-COOH)]R[NMeF][Gly(octyl)][NMeA][NMeF][dC]-OH; thioether N-15)	1.2	133	159
CCCCCCCC[C@@H]1NC(=O)[C@H](Cc2ccccc2)N(C)C(=O)[C@H](CCCNC(=N)N)NC(=O)[C@H](Cc2ccc(C(=O)O)cc2)NC(=O)[C@H](Cc2cccc(OCC(=O)O)c2)NC(=O)CN(C)C(=O)[C@H]([C@@H](C)CC)NC(=O)[C@H](Cc2ccccc2)N(C)C(=O)[C@H](Cc2ccc(O)cc2)NC(=O)[C@H](Cc2c[nH]c3ccccc23)NC(=O)[C@H](C)NC(=O)CN(CCCC(=O)O)C(=O)CSC[C@H](C(=O)O)NC(=O)[C@H](Cc2ccccc2)N(C)C(=O)[C@H](C)N(C)C1=O [Myostatin_99_v200] ({CH2CO}-[Gly(N(CH2)3COOH)]AWY[NMeF]I[Sar][Phe(3-OCH2COOH)][Phe(4-COOH)]R[NMeF][Gly(octyl)][NMeA][NMeF][dC]-OH; thioether N-15)	1	233	233
CCCCC[C@@H]1NC(=O)[C@H](Cc2ccccc2)N(C)C(=O)[C@H](CCCNC(=N)N)NC(=O)[C@H](Cc2ccc(C(=O)O)cc2)NC(=O)[C@H](Cc2cccc(OCC(=O)O)c2)NC(=O)CN(C)C(=O)[C@H]([C@@H](C)CC)NC(=O)[C@H](Cc2ccccc2)N(C)C(=O)[C@H](Cc2ccc(O)cc2)NC(=O)[C@H](Cc2c[nH]c3ccccc23)NC(=O)[C@H](C)NC(=O)[C@H](C)NC(=O)CSC[C@H](C(=O)O)NC(=O)[C@H](Cc2ccccc2)N(C)C(=O)[C@H](C)N(C)C1=O [Myostatin_99_v201] ({CH2CO}-AAWY[NMeF]I[Sar][Phe(3-OCH2COOH)][Phe(4-COOH)]R[NMeF][Ahp(2)][NMeA][NMeF][dC]-OH; thioether N-15)	8.6	262	2260
CCCCCC[C@@H]1NC(=O)[C@H](Cc2ccccc2)N(C)C(=O)[C@H](CCCNC(=N)N)NC(=O)[C@H](Cc2ccc(C(=O)O)cc2)NC(=O)[C@H](Cc2cccc(OCC(=O)O)c2)NC(=O)CN(C)C(=O)[C@H]([C@@H](C)CC)NC(=O)[C@H](Cc2ccccc2)N(C)C(=O)[C@H](Cc2ccc(O)cc2)NC(=O)[C@H](Cc2c[nH]c3ccccc23)NC(=O)[C@H](C)NC(=O)[C@H](C)NC(=O)CSC[C@H](C(=O)O)NC(=O)[C@H](Cc2ccccc2)N(C)C(=O)[C@H](C)N(C)C1=O [Myostatin_99_v207] ({CH2CO}-AAWY[NMeF]I[Sar][Phe(3-OCH2COOH)][Phe(4-COOH)]R[NMeF][Aoc(2)][NMeA][NMeF][dC]-OH; thioether N-15)	3.5	77	270
